Measured values published in patent US8247573B2, “Substituted N-(2-mercaptopyridin-3-yl)amides as KCNQ2/3 modulators” (Gruenenthal GmbH, priority 2009, dated 2012).

Target: T1, KCNQ2/3 channels (Homo sapiens, UniProt O43525+O43526)
T1 construct: expressed in transfected cells; host or cells: CHO-K1
Test: Fluorescence assay using a voltage-sensitive dye (fluorimetry)
Type: cell-based
Conditions: CHO-K1 cells expressing KCNQ2/3; for Emax: relative to retigabine = 100%, negative values = antagonistic, read-out: Fluorimetry % efficacy (I/EC50, retigabine = 100%); for EC50: agonistic activity
Method: Pharmacological Experiments Fluorescence Assay Using a Voltage-Sensitive Dye
Human CHO-K1 cells expressing KCNQ2/3 channels are cultivated adherently at 37° C., 5% CO2 and 95% humidity in cell culture bottles (e.g. 80 cm^2 TC flasks, Nunc) with DMEM-high glucose (Sigma Aldrich, D7777) including 10% FCS (PAN Biotech, e.g. 3302-P270521) or alternatively MEM Alpha Medium (1×, liquid, Invitrogen, #22571), 10% foetal calf serum (FCS) (Invitrogen, #10270-106, heat-inactivated) and the necessary selection antibiotics.
Before being seeded out for the measurements, the cells are washed with a 1×DPBS buffer without Ca^2+/Mg^2+ (e.g. Invitrogen, #14190-094) and detached from the bottom of the culture vessel by means of Accutase (PAA Laboratories, #L11-007) (incubation with Accutase for 15 min at 37° C.). The cell count then present is determined using a CASY™ cell counter (TCC model, Schärfe System) in order subsequently to apply 20,000 to 30,000 cells/well/100 μl of the described nutrient medium, depending on density optimisation for the individual cell line, to 96-well measuring plates of the Corning™ CellBIND™ type (flat clear-bottom black polystyrene microplates, #3340). Incubation is then carried out for one hour at room temperature, without gassing or adjusting the humidity, followed by incubation for 24 hours at 37° C., 5% CO2 and 95% humidity.
The voltage-sensitive fluorescent dye from the Membrane Potential Assay Kit (Red™ bulk format part R8123 for FLIPR, MDS Analytical Technologies™) is prepared by dissolving the contents of a vessel of Membrane Potential Assay Kit Red Component A in 200 ml of extracellular buffer (ES buffer, 120 mM NaCl, 1 mM KCl, 10 mM HEPES, 2 mM CaCl2, 2 mM MgCl2, 10 mM glucose; pH 7.4). After removal of the nutrient medium, the cells are washed with 200 μl of ES buffer, then covered with a layer of 100 μl of the dye solution prepared above and incubated for 45 min at room temperature with exclusion of light.
The fluorescence measurements are carried out with a BMG Labtech FLUOstar™, BMG Labtech NOVOstar™ or BMG Labtech POLARstar™ instrument (525 nm excitation, 560 nm emission, bottom-read mode). After incubation of the dye, 50 μl of the substances to be tested in the desired concentrations, or 50 μl of ES buffer for control purposes, are introduced into separate cavities of the measuring plate and incubated for 30 min at room temperature whilst being shielded from light. The fluorescence intensity of the dye is then measured for 5 min and the fluorescence value F1 of each well is thus determined at a given, constant time. 15 μl of a […] KCl solution […] are then added to each well. The change in fluorescence is subsequently measured until all relevant measured values have been obtained (mainly […]). At a given time after KCl application, a fluorescence value F2 is determined, in this case at the time of the fluorescence peak.
For calculation, the fluorescence intensity F2 is compared with the fluorescence intensity F1, and the agonistic activity of the target compound on the potassium channel is determined therefrom. F2 and F1 are calculated as follows: […]
In order to determine whether a substance has an agonistic activity,
[formula] is determined by adding to the reaction batch only the buffer solution instead of the substance to be tested, determining the value F1K of the fluorescence intensity, adding the potassium ions as described above and measuring a value F2K of the fluorescence intensity. Then F2K and F1K are calculated as follows: […]
A substance has an agonistic activity on the potassium channel if
Independently of the comparison of
[formula] it is also possible to conclude that a target compound has an agonistic activity if an increase in
[formula] is to be observed as the dosage of the target compound increases.
Calculations of EC50 values are carried out with the aid of Prism v4.0 software (GraphPad Softwares™).

O=C(CC1CCOCC1)Nc1cccnc1SCCS(=O)(=O)c1cccc(C(F)(F)F)c1 [Example 40, 2-Tetrahydropyran-4-yl-N-[2-[2-[[3-(trifluoromethyl)phenyl]sulfonyl]-ethylsulfanyl]-pyridin-3-yl]acetamide]
Emax: 52%

O=C(CCc1cccs1)Nc1cccnc1SCCS(=O)(=O)c1cccc(C(F)(F)F)c1 [Example 26, 3-Thiophen-2-yl-N-[2-[2-[[3-(trifluoromethyl)phenyl]sulfonyl]-ethylsulfanyl]-pyridin-3-yl]propionamide]
EC50: 123 nM
Emax: 82%

O=C(Cc1cccs1)Nc1cccnc1SCCOc1cccc(C(F)(F)F)c1 [Example 22, 2-Thiophen-2-yl-N-[2-[2-[3-(trifluoromethyl)-phenoxy]-ethylsulfanyl]-pyridin-3-yl]acetamide]
EC50: 732 nM
Emax: 155%

Cc1ccnc(SCCS(=O)(=O)c2cccc(C(F)(F)F)c2)c1NC(=O)Cc1cccs1 [Example 56, N-[4-Methyl-2-[2-[[3-(trifluoromethyl)phenyl]sulfonyl]-ethylsulfanyl]-pyridin-3-yl]-2-thiophen-2-yl acetamide]
EC50: 349 nM
Emax: 98.1%

O=C(Nc1cccnc1SCCS(=O)(=O)c1cccc(C(F)(F)F)c1)c1ccccc1O [Example 53, 2-Hydroxy-N-[2-[2-[[3-(trifluoromethyl)phenyl]sulfonyl]-ethylsulfanyl]-pyridin-3-yl]benzamide]
Emax: 27.4%

O=C(CCCc1ccccc1)Nc1cccnc1SCCS(=O)(=O)c1cccc(C(F)(F)F)c1 [Example 25, 4-Phenyl-N-[2-[2-[[3-(trifluoromethyl)phenyl]sulfonyl]-ethylsulfanyl]-pyridin-3-yl]-butyramide]
EC50: 71 nM
Emax: 170%

O=C(CC1CCCC1)Nc1cccnc1SCCS(=O)(=O)c1cccc(C(F)(F)F)c1 [Example 14, 2-Cyclopentyl-N-[2-[2-[[3-(trifluoromethyl)phenyl]sulfonyl]-ethylsulfanyl]-pyridin-3-yl]acetamide]
EC50: 45 nM
Emax: 167%

O=C(Cc1ccccn1)Nc1cccnc1SCCS(=O)(=O)c1cccc(C(F)(F)F)c1 [Example 60, 2-Pyridin-2-yl-N-[2-[2-[[3-(trifluoromethyl)phenyl]sulfonyl]-ethylsulfanyl]-pyridin-3-yl]acetamide]
EC50: 1020 nM
Emax: 101%

O=C(CCC1CCCCCC1)Nc1cccnc1SCCS(=O)(=O)c1cccc(C(F)(F)F)c1 [Example 58, 3-Cycloheptyl-N-[2-[2-[[3-(trifluoromethyl)phenyl]sulfonyl]-ethylsulfanyl]-pyridin-3-yl]propionamide]
EC50: 47.5 nM
Emax: 167%

O=C(Cc1cccs1)Nc1cccnc1SCCSc1cccc(C(F)(F)F)c1 [Example 20, 2-Thiophen-2-yl-N-[2-[2-[[3-(trifluoromethyl)phenyl]sulfanyl]-ethylsulfanyl]-pyridin-3-yl]acetamide]
EC50: 180 nM
Emax: 97%

COc1cccc(CC(=O)Nc2cccnc2SCCS(=O)(=O)c2cccc(C(F)(F)F)c2)c1 [Example 11, 2-(3-Methoxyphenyl)-N-[2-[2-[[3-(trifluoromethyl)phenyl]sulfonyl]-ethylsulfanyl]-pyridin-3-yl]acetamide]
EC50: 588 nM
Emax: 109%

O=C(Nc1cccnc1SCCS(=O)(=O)c1cccc(C(F)(F)F)c1)C1CCCCO1 (stereo not shown) [Example 48, N-[2-[2-[[3-(Trifluoromethyl)phenyl]sulfonyl]-ethylsulfanyl]-pyridin-3-yl]-tetrahydropyrane-2-carboxylic acid amide]
EC50: 174 nM
Emax: 93%

O=C(Nc1cccnc1SCCS(=O)(=O)c1cccc(C(F)(F)F)c1)c1ccc(Cl)nc1 [Example 35, 6-Chloro-N-[2-[2-[[3-(trifluoromethyl)phenyl]sulfonyl]-ethylsulfanyl]-pyridin-3-yl]-pyridine-3-carboxylic acid amide]
Emax: 43%

O=C(/C=C/c1ccc(F)cc1)Nc1cccnc1SCCS(=O)(=O)c1cccc(C(F)(F)F)c1 [Example 31, (E)-3-(4-Fluorophenyl)-N-[2-[2-[[3-(trifluoromethyl)phenyl]sulfonyl]-ethylsulfanyl]-pyridin-3-yl]acrylamide]
EC50: 841 nM
Emax: 109%

COc1ccc(CC(=O)Nc2cccnc2SCCS(=O)(=O)c2cccc(C(F)(F)F)c2)cc1 [Example 10, 2-(4-Methoxyphenyl)-N-[2-[2-[[3-(trifluoromethyl)phenyl]sulfonyl]-ethylsulfanyl]-pyridin-3-yl]acetamide]
EC50: 55 nM
Emax: 74%

O=C(Cc1cccnc1)Nc1cccnc1SCCS(=O)(=O)c1cccc(C(F)(F)F)c1 [Example 46, 2-Pyridin-3-yl-N-[2-[2-[[3-(trifluoromethyl)phenyl]sulfonyl]-ethylsulfanyl]-pyridin-3-yl]acetamide]
Emax: 50%

O=C(CCC1CCCCC1)Nc1cccnc1SCCS(=O)(=O)c1cccc(C(F)(F)F)c1 [Example 41, 3-Cyclohexyl-N-[2-[2-[[3-(trifluoromethyl)phenyl]sulfonyl]-ethylsulfanyl]-pyridin-3-yl]propionamide]
EC50: 99 nM
Emax: 127%

O=C(CCC1CCc2ccccc2C1)Nc1cccnc1SCCS(=O)(=O)c1cccc(C(F)(F)F)c1 (stereo not shown) [Example 57, 3-(1,2,3,4-Tetrahydronaphthalen-2-yl)-N-[2-[2-[[3-(trifluoromethyl)phenyl]sulfonyl]-ethylsulfanyl]-pyridin-3-yl]propionamide]
EC50: 56.5 nM
Emax: 134%

O=C(CCc1ccccc1)Nc1cccnc1SCCS(=O)(=O)c1cccc(C(F)(F)F)c1 [Example 27, 3-Phenyl-N-[2-[2-[[3-(trifluoromethyl)phenyl]sulfonyl]-ethylsulfanyl]-pyridin-3-yl]propionamide]
EC50: 208 nM
Emax: 112%

O=C(CC1CCCCC1)Nc1cccnc1SCCSc1cccc(C(F)(F)F)c1 [Example 29, 2-Cyclohexyl-N-[2-[2-[[3-(trifluoromethyl)phenyl]sulfanyl]-ethylsulfanyl]-pyridin-3-yl]acetamide]
EC50: 312 nM
Emax: 108%

O=C(Nc1cccnc1SCCS(=O)(=O)c1cccc(C(F)(F)F)c1)c1cccc(O)c1 [Example 47, 3-Hydroxy-N-[2-[2-[[3-(trifluoromethyl)phenyl]sulfonyl]-ethylsulfanyl]-pyridin-3-yl]benzamide]
EC50: 265 nM
Emax: 95%

CC(C)(C)CC(=O)Nc1cccnc1SCCOc1ccc(F)cc1 [Example 63, N-[2-[2-(4-Fluorophenoxy)-ethylsulfanyl]-pyridin-3-yl]-3,3-dimethyl butyramide]
EC50: 546 nM
Emax: 119%

O=C(CC1CCCCO1)Nc1cccnc1SCCS(=O)(=O)c1cccc(C(F)(F)F)c1 (stereo not shown) [Example 39, 2-Tetrahydropyran-2-yl-N-[2-[2-[[3-(trifluoromethyl)phenyl]sulfonyl]-ethylsulfanyl]-pyridin-3-yl]acetamide]
EC50: 363 nM
Emax: 139%

O=C(Nc1cccnc1SCCCc1ccc(F)cc1)c1ccc(F)c(F)c1 [Example 65, 3,4-Difluoro-N-[2-[3-(4-fluorophenyl)-propylsulfanyl]-pyridin-3-yl]benzamide]
EC50: 480 nM
Emax: 148%

O=C(Cc1cccs1)Nc1cccnc1SCCS(=O)(=O)c1ccccc1 [Example 7, N-[2-[2-(Benzenesulfonyl)-ethylsulfanyl]-pyridin-3-yl]-2-thiophen-2-yl acetamide]
EC50: 424 nM
Emax: 125%
